Here are results for 23 compounds from patent US20180186742A1, “PICOLINAMIDES AS FUNGICIDES” (Dow AgroSciences LLC, priority 2017, published 2018).

SMILES strings stand for the structures. Like-named read-outs stand apart in the source and are kept apart here.

The subject of one assay is Zymoseptoria tritici. Nature of the assay: Leaf blotch of wheat (SEPTTR), disease control on wheat seedlings. It is filed as in vivo. The conditions noted are these: for pest or weed control at 100 ppm: high volume application at 100 ppm; for pest or weed control at 121.5 g/ha: low volume application at 121.5 g/H. The procedure:
Technical grades of materials were dissolved in acetone, which were then mixed with nine volumes of water containing 110 ppm Triton X-100. The fungicide solutions were applied onto wheat seedlings using an automated booth sprayer to run-off. All sprayed plants were allowed to air dry prior to further handling. All fungicides were evaluated using the aforementioned method for their activity vs. all target diseases, unless stated otherwise. Wheat leaf blotch and brown rust activity were also evaluated using track spray applications, in which case the fungicides were formulated as EC formulations, containing 0.1% Trycol 5941 in the spray solutions. Wheat plants (variety Yuma) were grown from seed in a greenhouse in 50% mineral soil/50% soil-less Metro mix until the first leaf was fully emerged, with 7-10 seedlings per pot. These plants were inoculated with an aqueous spore suspension of Zymoseptoria tritici either prior to or after fungicide treatments. After inoculation the plants were kept in 100% relative humidity (one day in a dark dew chamber followed by two to three days in a lighted dew chamber at 20° C.) to permit spores to germinate and infect the leaf. The plants were then transferred to a greenhouse set at 20° C. for disease to develop. When disease symptoms were fully expressed on the 1st leaves of untreated plants, infection levels were assessed on a scale of 0 to 100 percent disease severity. Percent disease control was calculated using the ratio of disease severity on treated plants relative to untreated plants.

The test system of another assay is Puccinia triticina. The experiment in a line: Wheat brown rust (PUCCRT), disease control on wheat seedlings. It is filed as in vivo. The conditions noted are these: for pest or weed control at 100 ppm: high volume application at 100 ppm; for pest or weed control at 121.5 g/ha: low volume application at 121.5 g/H. The procedure:
Technical grades of materials were dissolved in acetone, which were then mixed with nine volumes of water containing 110 ppm Triton X-100. The fungicide solutions were applied onto wheat seedlings using an automated booth sprayer to run-off. All sprayed plants were allowed to air dry prior to further handling. All fungicides were evaluated using the aforementioned method for their activity vs. all target diseases, unless stated otherwise. Wheat leaf blotch and brown rust activity were also evaluated using track spray applications, in which case the fungicides were formulated as EC formulations, containing 0.1% Trycol 5941 in the spray solutions. Wheat plants (variety Yuma) were grown from seed in a greenhouse in 50% mineral soil/50% soil-less Metro mix until the first leaf was fully emerged, with 7-10 seedlings per pot. These plants were inoculated with an aqueous spore suspension of Puccinia triticina either prior to or after fungicide treatments. After inoculation the plants were kept in a dark dew room at 22° C. with 100% relative humidity overnight to permit spores to germinate and infect the leaf. The plants were then transferred to a greenhouse set at 24° C. for disease to develop. Fungicide formulation, application and disease assessment followed the procedures as described in the Example A.

The mark [1] stands for this setting: 24 h, 1 Day Protectant, read-out: SEPTTR disease control, 1DP, HV activity.
[2] abbreviates: 72 h, 3 Day Curative, read-out: SEPTTR disease control, 3DC, HV activity.
Setting [3] is: 24 h, 1 Day Protectant, read-out: PUCCRT disease control, 1DP, HV activity.
The mark [4] stands for this setting: 72 h, 3 Day Curative, read-out: PUCCRT disease control, 3DC, HV activity.
[5] abbreviates: 24 h, 1 Day Protectant, read-out: SEPTTR disease control, 1DP, LV activity.
[6] abbreviates: 72 h, 3 Day Curative, read-out: SEPTTR disease control, 3DC, LV activity.
Where [7] appears, read: 24 h, 1 Day Protectant, read-out: PUCCRT disease control, 1DP, LV activity.
The mark [8] stands for this setting: 72 h, 3 Day Curative, read-out: PUCCRT disease control, 3DC, LV activity.
The mark [9] stands for this setting: 24 h, 1 Day Protectant, wheat leaf blotch, read-out: SEPTTR 1DP disease control, LV activity.
[10] abbreviates: 72 h, 3 Day Curative, wheat leaf blotch, read-out: SEPTTR 3DC disease control, LV activity.
Setting [11] is: 24 h, 1 Day Protectant, wheat brown rust, read-out: PUCCRT 1DP disease control, LV activity.
The mark [12] stands for this setting: 72 h, 3 Day Curative, wheat brown rust, read-out: PUCCRT 3DC disease control, LV activity.

As for `COc1cc(F)ccc1[C@H](C1CCCCC1)[C@H](C)OC(=O)[C@H](C)NC(=O)c1nccc(OC)c1O` [Compound 143], the pest or weed control at 100 ppm in the assay on Zymoseptoria tritici (setting [1]) is greater than 80%; in the assay with Zymoseptoria tritici (setting [2]) it was less than 80%; with Puccinia triticina (setting [3]), greater than 80%; in the assay with Puccinia triticina (setting [4]) it was greater than 80%.
Consider `COc1cc(F)ccc1[C@@H](C1CCCC1)[C@H](C)OC(=O)[C@H](C)NC(=O)c1nccc(OC)c1O` [Compound 140], for which the pest or weed control at 100 ppm in the assay with Zymoseptoria tritici (setting [1]) was less than 0%; in the assay with Zymoseptoria tritici (setting [2]), less than 80%; in the assay with Puccinia triticina (setting [3]) it was greater than 80%; in the assay with Puccinia triticina (setting [4]) it was greater than 80%.
For the compound `COc1ccnc(C(=O)N[C@@H](C)C(=O)O[C@H](C)[C@H](c2ccc(F)cc2C)C2CCCC2)c1O` [Compound 128], the pest or weed control at 100 ppm was less than 0% with Zymoseptoria tritici (setting [1]), less than 80% with Zymoseptoria tritici (setting [2]), less than 80% in the assay with Puccinia triticina (setting [3]) and less than 0% with Puccinia triticina (setting [4]).
Consider `COc1ccnc(C(=O)N[C@H](C(=O)O[C@@H](C)[C@H](c2ccc(F)cc2C)C(C)C)C(C)C)c1O` [Compound 318], for which the pest or weed control at 100 ppm was less than 80% in the assay on Zymoseptoria tritici (setting [1]), less than 80% with Zymoseptoria tritici (setting [2]), greater than 80% with Puccinia triticina (setting [3]) and greater than 80% with Puccinia triticina (setting [4]).
For `COc1ccnc(C(=O)N[C@@H](C)C(=O)O[C@@H](C)[C@@H](c2ccc(F)cc2C)C2CCCCC2)c1O` [Compound 119], the pest or weed control at 100 ppm with Zymoseptoria tritici (setting [1]) is greater than 80%; in the assay with Zymoseptoria tritici (setting [2]), greater than 80%; in the assay with Puccinia triticina (setting [3]), greater than 80%; in the assay on Puccinia triticina (setting [4]), less than 80%.
Consider `COc1ccccc1[C@H](C(C)C)[C@H](C)OC(=O)[C@H](C)NC(=O)c1nccc(OC)c1OCOC(C)=O` [Compound 263], for which the pest or weed control at 121.5 g/ha in the assay on Zymoseptoria tritici (setting [5]) is less than 80%; in the assay with Zymoseptoria tritici (setting [6]), greater than 80%; in the assay with Puccinia triticina (setting [7]), greater than 80%; in the assay on Puccinia triticina (setting [8]), greater than 80%.
With `CC[C@H](C)[C@H](NC(=O)c1nccc(OC)c1O)C(=O)O[C@@H](C)[C@H](c1ccc(F)cc1C)C(C)C` [Compound 319], the pest or weed control at 100 ppm in the assay with Zymoseptoria tritici (setting [1]), in the assay with Zymoseptoria tritici (setting [2]), in the assay with Puccinia triticina (setting [3]) and with Puccinia triticina (setting [4]) was less than 80% throughout.
`COc1ccnc(C(=S)N[C@@H](C)C(=O)OC(C)[C@H](c2ccccc2)C2CCCC2)c1OC(C)=O` (stereo partly drawn) [Compound 176]: the pest or weed control at 121.5 g/ha in the assay with Zymoseptoria tritici (setting [5]) was greater than 80%; in the assay on Zymoseptoria tritici (setting [6]), greater than 80%; in the assay on Puccinia triticina (setting [7]), greater than 80%; in the assay on Puccinia triticina (setting [8]) it was less than 80%.
Turning to `COc1ccnc(C(=O)N[C@@H](C)C(=O)O[C@@H](C)[C@H](c2c(F)cc(F)cc2F)C(C)C)c1OC(C)=O` [Compound 388], the pest or weed control at 121.5 g/ha in the assay with Zymoseptoria tritici (setting [9]), in the assay with Zymoseptoria tritici (setting [10]), in the assay on Puccinia triticina (setting [11]) and in the assay on Puccinia triticina (setting [12]) was greater than 80% throughout.
Regarding `COc1ccc([C@H](C(C)C)[C@H](C)OC(=O)[C@H](C)NC(=O)c2nccc(OC)c2OCOC(C)=O)c(OC)c1` [Compound 264], the pest or weed control at 121.5 g/ha was less than 80% in the assay on Zymoseptoria tritici (setting [5]), less than 80% with Zymoseptoria tritici (setting [6]), greater than 80% with Puccinia triticina (setting [7]) and greater than 80% in the assay on Puccinia triticina (setting [8]).
Turning to `COc1ccnc(C(=O)N[C@@H](C)C(=O)O[C@@H](C)[C@H](c2ccc(F)cc2)C2CC2)c1OCOC(C)=O` [Compound 171], the pest or weed control at 121.5 g/ha in the assay with Zymoseptoria tritici (setting [5]), in the assay with Zymoseptoria tritici (setting [6]), in the assay on Puccinia triticina (setting [7]) and with Puccinia triticina (setting [8]) was greater than 80% each time.
As to `COc1cc(F)ccc1[C@@H](C1CCC1)[C@H](C)OC(=O)[C@H](C)NC(=O)c1nccc(OC)c1O` [Compound 142], the pest or weed control at 100 ppm with Zymoseptoria tritici (setting [1]) is less than 0%; in the assay on Zymoseptoria tritici (setting [2]), less than 80%; in the assay on Puccinia triticina (setting [3]) it was greater than 80%; in the assay on Puccinia triticina (setting [4]), greater than 80%.
Consider `CCC(C)[C@@H](c1ccc(F)cc1OC)[C@H](C)OC(=O)[C@H](C)NC(=O)c1nccc(OC)c1O` (stereo partly drawn) [Compound 146], for which the pest or weed control at 100 ppm is less than 80% with Zymoseptoria tritici (setting [1]), greater than 80% with Zymoseptoria tritici (setting [2]), greater than 80% with Puccinia triticina (setting [3]) and greater than 80% in the assay with Puccinia triticina (setting [4]).
On to `COc1ccnc(C(=O)N[C@@H](C)C(=O)O[C@@H](C)[C@H](c2ccc(C)cc2)C(C)C)c1OCOC(C)=O` [Compound 255], for which the results for the pest or weed control at 121.5 g/ha in the assay on Zymoseptoria tritici (setting [5]), in the assay on Puccinia triticina (setting [7]) and with Puccinia triticina (setting [8]) were less than 80%, greater than 80% and greater than 80%, respectively.
For `COc1ccnc(C(=O)N[C@@H](C)C(=O)O[C@@H](C)[C@H](c2cc(C)ccc2C)C(C)C)c1O` [Compound 321], the pest or weed control at 100 ppm with Zymoseptoria tritici (setting [1]) was less than 80%; in the assay with Zymoseptoria tritici (setting [2]), less than 80%; with Puccinia triticina (setting [3]), greater than 80%; with Puccinia triticina (setting [4]), greater than 80%.
Regarding `COc1cc(C)ccc1[C@H](C(C)C)[C@H](C)OC(=O)[C@H](C)NC(=O)c1nccc(OC)c1OC(C)=O` [Compound 253], the pest or weed control at 121.5 g/ha in the assay with Zymoseptoria tritici (setting [5]) was less than 80%; in the assay on Puccinia triticina (setting [7]) it was greater than 80%; in the assay with Puccinia triticina (setting [8]) it was greater than 80%.
As to `COc1ccccc1[C@H](C(C)C)[C@H](C)OC(=O)[C@H](C)NC(=O)c1nccc(OC)c1OC(C)=O` [Compound 261], the pest or weed control at 121.5 g/ha was less than 80% in the assay with Zymoseptoria tritici (setting [5]), less than 80% in the assay on Zymoseptoria tritici (setting [6]), greater than 80% in the assay on Puccinia triticina (setting [7]) and less than 80% in the assay with Puccinia triticina (setting [8]).
Consider `COc1ccnc(C(=O)N[C@@H](C)C(=O)O[C@@H](C)[C@@H](c2ccc(F)cc2C)C2CCCC2)c1O` [Compound 118], for which the pest or weed control at 100 ppm was less than 80% in the assay on Zymoseptoria tritici (setting [1]), less than 80% with Zymoseptoria tritici (setting [2]), greater than 80% with Puccinia triticina (setting [3]) and less than 80% in the assay with Puccinia triticina (setting [4]).
Take `CCC(C)[C@@H](c1ccccc1C)[C@H](C)OC(=O)[C@H](C)NC(=O)c1nccc(OC)c1OC(=O)C(C)C` (stereo partly drawn) [Compound 386]: the pest or weed control at 121.5 g/ha is less than 80% with Zymoseptoria tritici (setting [9]), greater than 80% with Zymoseptoria tritici (setting [10]), greater than 80% in the assay on Puccinia triticina (setting [11]) and greater than 80% with Puccinia triticina (setting [12]).
With `COc1ccnc(C(=O)N[C@@H](C)C(=O)O[C@@H](C)[C@@H](c2ccc(F)cc2C)C(C)C)c1O` [Compound 116], the pest or weed control at 100 ppm is less than 0% in the assay with Zymoseptoria tritici (setting [1]), less than 80% in the assay on Zymoseptoria tritici (setting [2]), greater than 80% with Puccinia triticina (setting [3]) and less than 0% in the assay on Puccinia triticina (setting [4]).
In the case of `COc1ccnc(C(=O)N[C@@H](C)C(=O)O[C@@H](C)[C@@H](c2ccc(C)cc2C)C(C)C)c1O` [Compound 131], the pest or weed control at 100 ppm in the assay on Zymoseptoria tritici (setting [1]) is less than 80%; with Zymoseptoria tritici (setting [2]) it was less than 80%; with Puccinia triticina (setting [3]), greater than 80%; with Puccinia triticina (setting [4]), greater than 80%.
For the compound `COc1cc(F)ccc1[C@H](C(C)C)[C@H](C)OC(=O)[C@H](C)NC(=O)c1nccc(OC)c1O` [Compound 148], the pest or weed control at 100 ppm with Zymoseptoria tritici (setting [1]) was less than 0%; in the assay with Zymoseptoria tritici (setting [2]), less than 80%; with Puccinia triticina (setting [3]) it was less than 80%; in the assay on Puccinia triticina (setting [4]), greater than 80%.
Consider `COc1cc(F)ccc1[C@@H](C1CCCCC1)[C@H](C)OC(=O)[C@H](C)NC(=O)c1nccc(OC)c1O` [Compound 139], for which the pest or weed control at 100 ppm is greater than 80% in the assay with Zymoseptoria tritici (setting [1]), less than 0% in the assay with Zymoseptoria tritici (setting [2]), greater than 80% with Puccinia triticina (setting [3]) and less than 80% in the assay with Puccinia triticina (setting [4]).
